“Also recorded” adds a separate entry of the source. Where a SMILES comes first, the peptide text is derived from it. The star is where a group is joined. Cbz = O=C(OCc1ccccc1)*; OtBu = CC(C)(C)O*
Assays:
[1] = test system: TGF-β1 protein expression in human dermal fibroblast cells; assay: TGF-β1 protein expression in normal and PMA-challenged human dermal fibroblasts; format: cell-based; details: PS-1 0 nM to 10000 nM
Description: Cyto-toxicity analysis was performed to illustrate the inhibition of TGF-131 in human dermal fibroblasts. Both normal human dermal fibroblast cells (i.e., undamaged or non-wounded skin cells) and challenged (damaged) human dermal fibroblast cells were treated with concentrations of PS-1 ranging from 0 nM to 10000 nM and the effect of the various PS-1 concentrations on the normal and challenged cells was measured. It is noted that the challenged human dermal fibroblast cells were treated in vitro with 10 nM of phorbol 12-myristate 13-acetate (PMA) to simulate wounding. […] FIG. 11 illustrates TGF-131 protein expression upon addition of PS-1 in cells challenged by the addition of the 10 nM of PMA.

[2] = test system: incisional wounds of Sprague-Dawley rats; assay: Incisional wound healing model: histology; format: in vivo; details: for Overall Dermal Collagen Response: histology score; for wounds presenting with some degree of epithelial hyperplasia: control rats 60%
From the text: (§1) Using a standard incisional wound healing model, two 6 cm linear incisions were made through the panniculus carnosum on the dorsal aspect of 10 to 12 week old male Sprague-Dawley rats 1 centimeter on either side of midline running cephalid to caudal using a prefabricated template. Three surgical clips were used to close the incision and serve as guides for sectioning on harvest day.
(§2) Rats were randomly assigned to 1 of 3 treatment groups, indentified by the treatment administered to the wound located on the left. All wounds located on the right, regardless of treatment group, received vehicle (100% DMSO) as a control. […] Treatment was administered by applying 100 micro liters into (at time of closure) or onto the wound every 24 hours for the first 48 hours beginning at the time of wound closure, totaling 3 doses per wound.
(§3) On days 7, 14 and 28 post-wounding, the rats were euthanized and the entire dorsal skin excised. Four 8 mm sample strips were cut perpendicular to the wounds, to incorporate both the treated wound and the adjacent vehicle wound. The sample strips were then cut in half, equidistance from the two parallel wounds, yielding a total of four samples per wound, and yielding a compliment vehicle wound for each treated sample. One cephalic and one caudle sample were immediately prepared for histology, with the remaining two strips immediately prepared for tensometry.
Histological samples were fixed in 10% formalin, routinely processed, embedded in paraffin, and sectioned at approximately 5 μm. Cross sections of skin were stained with hematoxylin and eosin (H&E) and Masson's Trichrome using routine methods. All slides were subjectively evaluated on an Olympus BX40 microscope (Olympus America, Center Valley, Pa.) by a board-certified veterinary pathologist blinded to the treatment groups. The following parameters were determined for each sample: (1) collagen density (0=no mature collagen, 1=loose, 2=intermediate, 3=dense); (2) collagen maturity (1=immature, 2=intermediate, 3=mature); (3) amount and type of inflammation present in the dermis (0=none, 1=minimal, 2=mild, 3=moderate, 4=severe); (4) epithelial hyperplasia (0=none, 1=minimal, 2=mild, 3=moderate, 4=severe); (5) amount of epidermal necrosis over wound (0=0%, 1=25%, 2=50%, 3=75%, 4=100). Images were captured using an Olympus BX41 microscope (Olympus America, Center Valley, Pa.) and an Olympus DP71 digital camera (Olympus America, Center Valley, Pa.). Captured images of Masson's Trichrome sections under a 4× objective were uploaded into ImageJ (NIH) in order to calculate the cross sectional area of immature collagen within day 28 wounds. For statistical purposes, samples were averaged to provide a single score in each parameter per wound.
(§4) A paired student's t-test was used for statistical comparisons between adjacent wounds. A tukey's comparison was used for statistical comparison of wounds between different rats. A Kruskal-Wallis test was used for comparing graded histology. A Chi square was used to determine statistical meaning of epithelial necrosis.

[3] = test system: incisional wounds of Sprague-Dawley rats; assay: Incisional wound healing model: tensometry and wound thickness; format: in vivo
From the text: as §1, §2, §3
Prior to sample loading for testing by tensometry, the underlying subcutaneous fascia was removed to the level of the panniculus carnosum using sharp dissection, following a natural dissection plane. For the day 28 wounds, the 8 mm samples were divided into 4 mm strips prior to loading secondary to slippage issues encountered during the pilot study. Samples were loaded into a Lloyd Instrument materials testing system (model LRX plus, Fareham, Hampshire, UK) with a 50 N load cell, with the wounds perpendicular to the grips and pulled at a rate of 200 mm/min. Wound thickness, just superficial to epithelium and just deep to panniculus carnosum, was measured at the time of testing with digital calipers (Absolute Digimatic Caliper, Mitutoyo, Kawasaki, Kanagawa, Japan). The wound width was measured at a preload of 0.5N by obtaining the correlating still frame image from a hands free mounted video camera (HDR-SR1 Handycam® camcorder, Sony, San Diego, Calif.). These two measurements were then used to calculate the cross sectional area of the wounds and the subsequent tensile strength (N/mm^2).
as §4

EFT400-Epidermis = assay: Skin thickness upon addition of PS-1 (EPIDERMFT EFT-400 tissue samples, in vitro); format: cell-based; details: for EFT400-Epidermis thickness, Trial 1: control 61; for EFT400-Epidermis thickness, Trial 3: control 66.22; for EFT400-Epidermis thickness, Trial 2: control 73.73
Description: Tissue samples were received and equilibrated for treatment. Media was retained for enzyme-linked immunosorbent assay (ELISA) using an EPIDERMFT kit, product number EFT-400. On the second day, PS-1 treatment was added to the samples, wherein the media was exchanged with compound in 4 ml. More specifically, three samples were maintained as control samples and included DMSO at a concentration of 62 μm/10 ml, with no added PS-1 treatment, 0.1 μM (0.620/10 ml) was added to three samples, 1 μM (0.620/10 ml) was added to three samples, and 10 μM (0.620/10 ml) was added to three samples.
The samples were left to incubate on days 3-5 and on day 6, the media was exchanged again. On the seventh day, tissue samples were removed and conditioned media was saved for ELISA. The samples were then measured using […].
FIG. 2 illustrates changes in the epidermis thickness versus the amount of PS-1 added to the assays and the supporting data is presented in Table 1 below. […] FIGS. 3 through 5 illustrate the difference in thickness as between the control samples and the 10 μl/ml samples at 10× magnification and 40× magnification.

Structure (SMILES): CC[C@H](C)[C@H](NC(=O)OCc1ccccc1)C(=O)N[C@@H](CCC(=O)OC(C)(C)C)C(=O)N[C@@H](C)C(=O)N[C@H](C=O)CC(C)C [PS-1, Z-Ile-Glu(OBu^t)-Ala-Leu-H] (Cbz-IE(OtBu)AL-aldehyde)
- TGF-β1 protein expression (in words) ([1]; cells challenged with 10 nM PMA, FIG. 11): reduced TGF-β1 protein expression to similar levels seen in normal cells
- TGF-β1 protein expression (in words) ([1]; normal human dermal fibroblast cells, FIG. 10): relatively little change in TGF-β1 protein expression
- Overall Dermal Collagen Response ([2]; PS-1 1% treated wounds, Day 7, control 0.8 ± 0.3): 0.8 ± 0.3
- Overall Dermal Collagen Response ([2]; PS-1 1% treated wounds, Day 14, control 1.9 ± 0.3): 2.1 ± 0.3
- Overall Dermal Collagen Response ([2]; PS-1 1% treated wounds, Day 28, control 2.6 ± 0.5): 2.9 ± 0.3
- Overall Dermal Collagen Response ([2]; PS-1 5% treated wounds, Day 7, control 0.8 ± 0.3): 0.7 ± 0.3
- Overall Dermal Collagen Response ([2]; PS-1 5% treated wounds, Day 14, control 1.9 ± 0.3): 2.0 ± 0.0
- Overall Dermal Collagen Response ([2]; PS-1 5% treated wounds, Day 28, control 2.6 ± 0.5): 2.8 ± 0.3
- accumulation of neutrophils in the dermis (in words) ([2]; day 14, most notable in rats receiving 1% PI): nearly extinct
- wounds presenting with some degree of epithelial hyperplasia ([2]; day 28, 1% PI rats): 8 % of wounds
- wounds presenting with some degree of epithelial hyperplasia ([2]; day 28, 5% PI rats): 20 % of wounds
- macrophage and lymphocyte accumulates (in words) ([2]; day 28, most notably low dose rat wounds, FIG. 20): continued to decline
- histology finding in the subcutaneous tissue beneath the panniculus carnosum (in words) ([2]; wounds receiving direct administration of the PI, seemingly dose dependent): foreign body reaction
- normalization of wound thickness (in words) ([3]; after PS-1 treatment): normalized faster
- tensile strength vs untreated wounds (in words) ([3]; day 7 post-wounding, high dose (5% w/w in DMSO), p=0.0223): significantly lower
- tensile strength vs untreated wounds (in words) ([3]; day 7 post-wounding, low dose (1% w/w in DMSO), p=0.0121): significantly lower
- tensile strength, differences between wounds (in words) ([3]; day 14 post-wounding, all wounds): no significant differences in tensile strength
- wound thickness vs untreated control wounds (in words) ([3]; day 28, 1% PI, p=0.057): thinner than untreated control wounds, but just lacked significance
- wound thickness vs untreated control wounds (in words) ([3]; day 28, 5% PI, p=0.013): significantly thinner
- tensile strength vs untreated wounds (in words) ([3]; day 28 post-wounding, 1% PI): no significant difference
- tensile strength vs untreated wounds (in words) ([3]; day 28 post-wounding, 5% PI, p=0.0269): significantly increased tensile strength
- EFT400-Epidermis thickness, Trial 1 (EFT400-Epidermis; 0.1 μM PS-1): 69.47 microns
- EFT400-Epidermis thickness, Trial 3 (EFT400-Epidermis; 0.1 μM PS-1): 78.82 microns
- EFT400-Epidermis thickness, Trial 2 (EFT400-Epidermis; 0.1 μM PS-1): 61.85 microns
- EFT400-Epidermis thickness, Trial 1 (EFT400-Epidermis; 1 μM PS-1): 59.13 microns
- EFT400-Epidermis thickness, Trial 3 (EFT400-Epidermis; 1 μM PS-1): 61.6 microns
- EFT400-Epidermis thickness, Trial 2 (EFT400-Epidermis; 1 μM PS-1): 54.09 microns
- EFT400-Epidermis thickness, Trial 1 (EFT400-Epidermis; 10 μM PS-1): 106.31 microns
- EFT400-Epidermis thickness, Trial 3 (EFT400-Epidermis; 10 μM PS-1): 100.16 microns
- EFT400-Epidermis thickness, Trial 2 (EFT400-Epidermis; 10 μM PS-1): 96.2 microns
- thickness of the resultant epidermis in vitro (in words) (EFT400-Epidermis; addition of 10 μm, compared with the other samples): relatively significant increase in the thickness
- stratum granulosum formation (in words) (EFT400-Epidermis; treated samples vs control samples, FIGS. 3-5): relatively well formed stratum granulosum; also recorded: relatively better developed stratum granulosum

From US20110009332A1, “Therapeutic Treatment Of Wounds” (SOUTHWEST RESEARCH INSTITUTE, priority 2009, published 2011)
